# Experimental data taken from publication PMC9561151, “Structural studies of the phosphoribosyltransferase involved in cobamide biosynthesis in methanogenic archaea and cyanobacteria” (Scientific Reports, 2022).
# Assays:
# [1] = target: T1, MjCobT (Methanocaldococcus jannaschii, UniProt Q58993); assay: X-ray crystal structure of complex, […] Å; type: binding; conditions: formed in the crystal from NaMN and adenine; active site with nicotinic acid
# T1 construct: gene MJ1598; expressed in E. coli BL21-CodonPlus from pTEV5; N-terminal His6 tag cut with rTEV; Met 1 to Tyr 348 modelled; dimer
# [2] = target: T1, MjCobT; assay: X-ray crystal structure of complex, […] Å; type: binding
# [3] = target: T1, MjCobT; assay: turnover in crystal, product seen by X-ray; type: biochemical; conditions: free base not seen in the structure
# [4] = target: the molecule itself; assay: crystal structure; three crystal forms of MjCobT grown at room temperature: apo (P41212, 1 subunit per asymmetric unit), with NaMN and α-RP + nicotinic acid (P21, 2 subunits), with α-AMP + nicotinic acid (P21, 2 subunits); molecular replacement with 3L0Z
molecule,measurement,setting,value
Nc1ncnc2ncn([C@H]3O[C@H](COP(=O)(O)O)[C@@H](O)[C@H]3O)c12 [α-AMP],"X-ray crystal structure of complex, 1.4 Å",[1],the crystals were highly ordered and the position of α-AMP is unequivocal
O=C([O-])c1ccc[n+]([C@@H]2O[C@H](COP(=O)(O)O)[C@@H](O)[C@H]2O)c1 [NaMN],"X-ray crystal structure of complex, 2.3 Å","[2]; crystals grown with DMB, soaked overnight in 1 mM NaMN, NaMN in active site of chain A",NaMN lies at the base of the active site for chain A
Cc1cc2ncn([C@H]3O[C@H](COP(=O)(O)O)[C@@H](O)[C@H]3O)c2cc1C [α-RP],"X-ray crystal structure of complex, 2.3 Å","[2]; formed in the crystal from NaMN and DMB, active site of chain B with nicotinic acid, occupancy below 1.0","One subunit contains NaMN, whereas the second includes α-RP and nicotinic acid"
Nc1ncnc2[nH]cnc12 [adenine],"turnover in crystal, product seen by X-ray","[3]; 1 mM adenine and 1 mM NaMN soak, pH 8.5",the reaction product was prepared in situ by soaking the crystals in NaMN and adenine
Cc1cc2nc[nH]c2cc1C [DMB],"turnover in crystal, product seen by X-ray","[3]; 1 mM DMB in crystallization, NaMN soak overnight",During that time the enzyme catalyzed a transferase reaction
"Methanocaldococcus jannaschii nicotinate mononucleotide:base phosphoribosyltransferase (MjCobT) (enzyme, CobT (NaMN:base phosphoribosyltransferase) of Methanocaldococcus jannaschii; the modelled chain runs from Met 1 to Tyr 348; also called PRTase from Methanocaldococcus jannaschii; source: E. coli BL21-CodonPlus, purified (80 °C heat step, Ni-NTA, rTEV cleavage, second Ni-NTA); not shown: His6, N-terminal, cleaved) MSIIAINENGFLDKIKGRNPLFTCVISSIETTLSIPISGVHRDVIKYTPSADVELVFYGKSLTLKTPPIDATGSPTPATITRACVELKNIKNLHIDAGAFVKPKIPFIEIDEKPTGRIEEGKAMNNSKELYMKGYLLGKNLDAELLIVGESVPGGTTTALGVLLGLGYDAEGKVSSGSINNPHELKIKVVREGLKKAGINEKSSVFDVLNAVGDKMMPVVAGLAISFAERNKPVILAGGTQMSAVLAVIKEINKKVLDKNLIAIGTTEFVLNDKKGDLKGIVEQIGNVPVLASKFYFEKAKIEGLKNYCKGSVKEGVGAGGIAVYSIVNDLEPTKIREFIENKFYEWYKE",stoichiometry N,[4],2
